Data published in ChEMBL document CHEMBL1201862, “PubChem BioAssay data set” (2004).
Calls of active or inactive are those of the source. No stated cut-off is given here; in the data, actives have a measured EC50 and inactives only a lower limit.

Experiments:
[1] = target: T1, Streptokinase A (Streptococcus pyogenes serotype M1, UniProt P10520); assay: viability-normalized secreted streptokinase activity reduction – plasminogen activation absorbance, OD405, dose response (AID 1914); format: functional, Streptococcus pyogenes M1 GAS;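 further: secreted streptokinase activity via plasminogen activation per viability signal from cell pellet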
T1 sequence (P10520 whole entry): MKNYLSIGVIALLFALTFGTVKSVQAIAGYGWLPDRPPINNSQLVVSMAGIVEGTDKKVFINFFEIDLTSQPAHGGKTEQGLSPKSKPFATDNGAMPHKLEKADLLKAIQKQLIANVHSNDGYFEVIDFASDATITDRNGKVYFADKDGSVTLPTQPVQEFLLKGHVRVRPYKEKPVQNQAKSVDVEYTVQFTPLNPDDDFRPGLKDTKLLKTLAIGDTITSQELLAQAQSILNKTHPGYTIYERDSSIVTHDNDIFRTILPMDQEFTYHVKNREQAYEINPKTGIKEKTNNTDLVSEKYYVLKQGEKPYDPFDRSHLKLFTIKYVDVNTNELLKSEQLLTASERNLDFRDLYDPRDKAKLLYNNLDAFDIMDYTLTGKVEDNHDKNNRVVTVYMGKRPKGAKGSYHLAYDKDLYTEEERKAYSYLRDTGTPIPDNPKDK

[2] = tested on: Streptococcus sp. 'group A'; assay: Streptococcus pyogenes SK(-)GAS viability under kanamycin – luminescence, BacTiterGlo, confirmation, counter-screen for streptokinase expression inhibitor project, dose response (AID 1900); format: functional, organism-based
[3] = tested on: Streptococcus; assay: GAS UMAA2166 growth inhibition – luminescence, BacTiterGlo, counter-screen for streptokinase expression inhibitor project, dose response (AID 1915); format: functional, organism-based;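 further: potency for reduction of bacterial viability or growth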
[4] = Trypanosoma cruzi growth suppression in host cells – NIH3T3 host cells, beta-gal luminescence, confirmation (AID 2044); format: functional, cell-based;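 further: intracellular parasites grown in NIH/3T3 mouse fibroblasts as host cells; luminescent beta-galactosidase reporter signal from transgenic T. cruzi replicating inside host cells; inhibitors lower the luminescence signal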
[5] = NIH3T3 cell viability loss – ATP luminescence, mouse fibroblasts, counter-screen, dose response (AID 2010); format: functional, cell-based;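 further: cells exposed to compound for about 90 hours before reading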

## FC(F)(F)c1cccc(NC(=S)Nc2ccc(Cl)c(Cl)c2)c1
[1]
  EC50: > 150 µM (not active)

## FC(F)(F)c1cccc(NC(S)=Nc2ccc(Cl)c(Cl)c2)c1
[2]
  EC50: 2.45 µM (active)
[3]
  EC50: 6.78 µM (active)

## Cc1[nH]c2ccc(F)cc2c1CCN(Cc1cccnc1)C(S)=Nc1cccc(F)c1
[4]
  EC50: 0.608 µM (active)
[5]
  EC50: > 30 µM (not active)

## COc1cccc(N2C(=O)C3NN=C(C(=O)CN4C(=O)c5ccccc5C4=O)C3C2=O)c1 (centres undefined)
[2]
  EC50: > 150 µM (not active)
[1]
  EC50: > 150 µM (not active)
[3]
  EC50: > 150 µM (not active)

## Cc1cccc(OCCCOc2cccc3cccnc23)c1C
[2]
  EC50: 16.9 µM (active)
[1]
  EC50: > 150 µM (not active)
[3]
  EC50: > 150 µM (not active)

## c1ccc(N2N=C(c3cccs3)CC2c2ccco2)cc1 (centres undefined)
[2]
  EC50: > 150 µM (not active)
[1]
  EC50: 40.1 µM (active)
[3]
  EC50: > 150 µM (not active)

## CC(=O)OCC1=C(C(=O)O)N2C(=O)C(NC(=O)CCn3nc(C)c(Cl)c3C)C2SC1 (centres undefined)
[2]
  EC50: 2.13 µM (active)
[3]
  EC50: 1.31 µM (active)

## Cn1c(Sc2ccccc2Cl)c(C=O)c2ccccc21
[2]
  EC50: 27.1 µM (active)
[1]
  EC50: 32.3 µM (inconclusive)
[3]
  EC50: > 150 µM (not active)

## O=C(/C=C/c1cccc(F)c1)NC1CCN(Cc2ccccc2)CC1
[4]
  EC50: 0.102 µM (active)
[5]
  EC50: > 60 µM (not active)

## CC1CCN(c2ccccc2NC(=O)c2cc3ccccc3o2)CC1
[2]
  EC50: 8.15 µM (active)
[1]
  EC50: 25.2 µM (active)
[3]
  EC50: 42.4 µM (active)

## O=C(O)c1ccc(NC(=S)NC(=O)c2cccc(COc3ccccc3)c2)cc1
[2]
  EC50: 18.6 µM (active)
[3]
  EC50: 38 µM (active)

## CCCCn1c(=O)c(C(=O)NCCc2ccccc2)c(O)c2ccccc21
[2]
  EC50: 26.4 µM (active)
[1]
  EC50: 30.9 µM (active)
[3]
  EC50: > 150 µM (not active)

## O=C(NNC(=S)NC(=O)c1ccc(Br)cc1)c1cccc([N+](=O)[O-])c1
[2]
  EC50: 2.41 µM (active)
[1]
  EC50: > 150 µM (not active)
[3]
  EC50: 9.6 µM (active)

## CCOC(=O)c1ccc(N2C(=O)/C(=C\NNC(=O)C3COc4ccccc4O3)c3ccccc3C2=O)cc1 (centres undefined)
[2]
  EC50: 1.02 µM (active)
[3]
  EC50: 4.31 µM (active)

## Cc1cc(C)c(OCC(=O)Nc2ccccc2N2CCCCC2)c(C)c1
[2]
  EC50: 25.7 µM (active)
[1]
  EC50: 4.09 µM (active)
[3]
  EC50: 15.7 µM (active)

## CCOc1ccc(CN2CCN(Cc3[nH]c4ccc(OC)cc4c3C)CC2CCO)cc1 (centres undefined)
[4]
  EC50: 0.141 µM (active)
[5]
  EC50: > 60 µM (not active)

## CCOC(=O)N1CCC(N2Cc3cccc(C(=O)Nc4ccc(F)cc4)c3C2=O)CC1
[2]
  EC50: 4.41 µM (active)
[1]
  EC50: > 150 µM (not active)
[3]
  EC50: > 150 µM (not active)

## COc1ccc(C2CC(C)(c3ccc(OC)cc3OC)Nc3ccccc3N2)c(OC)c1 (centres undefined)
[4]
  EC50: 1.96 µM (active)
[5]
  EC50: > 60 µM (not active)

## CCOC(=O)N1CCC(n2c(SCC(=O)Nc3ccccc3OC)nc3ccccc3c2=O)CC1
[4]
  EC50: 5.24 µM (active)
[5]
  EC50: > 60 µM (not active)

## Cc1ccc(C(=O)C(c2ccccc2)N2Cc3ccccc3C2=N)cc1 (centres undefined)
[2]
  EC50: 5.37 µM (active)
[1]
  EC50: 4.15 µM (active)
[3]
  EC50: > 150 µM (not active)

## Cc1cccc(/C=N/NC(=O)Cc2ccc(Cl)cc2)c1O
[2]
  EC50: 4.52 µM (active)
[3]
  EC50: 7.4 µM (active)

## CC[C@H]1OC(=O)C[C@@H](O)[C@H](C)[C@@H](O[C@@H]2O[C@H](C)C[C@H](N(C)C)[C@H]2O)[C@@H](CC=O)C[C@@H](C)C(=O)C=C[C@]2(C)O[C@H]2[C@@H]1C
[2]
  EC50: < 0.06 µM (active)
[3]
  EC50: < 0.06 µM (active)

## C=CCc1cccc(/C=N/NC(=O)C(=O)Nc2ccc(C)cc2)c1O
[2]
  EC50: > 150 µM (not active)
[1]
  EC50: > 150 µM (not active)
[3]
  EC50: > 150 µM (not active)

## Cc1ccccc1/C=N/Nc1nc2ccccc2[nH]1
[2]
  EC50: 146 µM (active)
[1]
  EC50: > 150 µM (not active)
[3]
  EC50: > 150 µM (not active)
